Data: US20070238723A1, “Benzoxazinyl-amidocyclopentyl-heterocyclic modulators of chemokine receptors” (priority 2004, published 2007)

Target: T1, CCR-2 receptor (Homo sapiens, UniProt P41597)
T1 construct: the endogenous CCR-2 receptor on various cell types including monocytes, THP-1 cells; endogenous in cells; host or cells: monocytes, THP-1 cells (or unnamed eukaryotic cells expressing the cloned receptor)
Test: CCR-2 binding assay (inhibition of 125I-MCP-1 binding)
Details: qualitative comparison among separated isomers; assay not given
Protocol: Receptor affinity in a CCR-2 binding assay was determined by measuring inhibition of ^125I-MCP-1 to the endogenous CCR-2 receptor on various cell types including monocytes, THP-1 cells, or after heterologous expression of the cloned receptor in eukaryotic cells. The cells were suspended in binding buffer (50 mM HEPES, pH 7.2, 5 mM MgCl2, 1 mM CaCl2, and 0.50% BSA) with and added to test compound or DMSO and ^125I-MCP-1 at room temperature for 1 h to allow binding. The cells were then collected on GFB filters, washed with 25 mM HEPES buffer containing 500 mM NaCl and cell bound ^125I-MCP-1 was quantified.

T1 sequence (P41597 whole entry): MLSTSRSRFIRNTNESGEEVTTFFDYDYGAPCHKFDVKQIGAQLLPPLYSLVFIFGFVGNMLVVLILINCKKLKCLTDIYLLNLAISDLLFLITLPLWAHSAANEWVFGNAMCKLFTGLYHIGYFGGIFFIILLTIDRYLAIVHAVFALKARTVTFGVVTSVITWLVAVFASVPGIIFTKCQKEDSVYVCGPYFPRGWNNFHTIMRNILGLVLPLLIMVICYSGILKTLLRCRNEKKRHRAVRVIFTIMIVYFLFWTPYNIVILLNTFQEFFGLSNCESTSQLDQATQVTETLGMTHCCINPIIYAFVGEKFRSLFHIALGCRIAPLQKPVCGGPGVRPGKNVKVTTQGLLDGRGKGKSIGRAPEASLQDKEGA

CCOC(=O)c1cccc(C2CCN([C@@H]3CC[C@](C(C)=O)(C(=O)N4COc5ccc(C(F)(F)F)cc5C4)C3)CC2)c1 (single isomer, unassigned) [Peak 3]
potency relative to other stereoisomers: best potency
